A value given as a limit tells only on which side of the number the result lay.

The target of the test is T1, GlyT1 (Homo sapiens, UniProt P48067).
T1 construct: expressed in transfected cells
T1 sequence (P48067 1-706): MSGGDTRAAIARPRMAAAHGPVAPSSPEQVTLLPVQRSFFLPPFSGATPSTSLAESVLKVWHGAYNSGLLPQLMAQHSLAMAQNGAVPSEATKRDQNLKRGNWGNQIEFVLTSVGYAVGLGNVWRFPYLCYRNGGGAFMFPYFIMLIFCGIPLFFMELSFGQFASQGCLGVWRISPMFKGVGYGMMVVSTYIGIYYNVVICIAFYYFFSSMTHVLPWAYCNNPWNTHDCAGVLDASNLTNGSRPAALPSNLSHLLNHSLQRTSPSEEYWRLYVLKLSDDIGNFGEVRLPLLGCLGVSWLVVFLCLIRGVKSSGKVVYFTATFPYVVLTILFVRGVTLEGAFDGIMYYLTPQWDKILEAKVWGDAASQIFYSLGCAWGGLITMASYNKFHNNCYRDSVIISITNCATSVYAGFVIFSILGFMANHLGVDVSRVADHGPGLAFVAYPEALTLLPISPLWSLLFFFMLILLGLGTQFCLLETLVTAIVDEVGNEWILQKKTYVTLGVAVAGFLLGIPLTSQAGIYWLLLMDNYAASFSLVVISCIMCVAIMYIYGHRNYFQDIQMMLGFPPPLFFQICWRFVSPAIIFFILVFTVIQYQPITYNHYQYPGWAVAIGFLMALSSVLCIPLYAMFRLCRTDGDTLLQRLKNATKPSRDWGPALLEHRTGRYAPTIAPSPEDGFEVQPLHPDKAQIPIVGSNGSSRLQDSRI
The experiment in a line: Glycine Transporter 1 (GlyT1) uptake assay, scintillation proximity assay of [14C]-glycine uptake. It is filed as cell-based. Conditions: SPA, four parameter logistic fit, read-out: GlyT1 (pIC50) (converted). Summed up:
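[14C]-glycine uptake read by scintillation proximity on a plate counter. IC50 from four-parameter logistic fit of dose-response data.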
Background: SPA uses beads or plates that emit light when radiolabelled molecules are held near them.
Consider `Cc1ccc(F)c(-n2cc3c(n2)CN(C(=O)c2cc(S(C)(=O)=O)ccc2OCC2(C)COC2)C3)c1` [Example 442, 2-(2-Fluoro-5-methylphenyl)-5-{5-methanesulfonyl-2-[(3-methyloxetan-3-yl)methoxy]benzoyl}-2H 4H 5H 6H-pyrrolo[3,4-c]pyrazole], for which the IC50 was 100 to 1000 nM. As for `CC(Oc1ccc(S(C)(=O)=O)cc1C(=O)N1CCc2nn(-c3ccccc3)cc2C1)C(F)(F)F` (centres unmarked) [Example 163, 5-{5-Methanesulfonyl-2-[(1 1 1-trifluoropropan-2-yl)oxy]benzoyl}-2-phenyl-2H 4H 5H 6H 7H-pyrazolo[4,3-c]pyridine], the figure is 100 to 1000 nM. `CS(=O)(=O)c1ccc(OCC2CC2)c(C(=O)N2Cc3cn(-c4cccc(C(F)(F)F)c4F)nc3C2)c1` [Example 138, 5-[2-(Cyclopropylmethoxy)-5-methanesulfonylbenzoyl]-2-[2-fluoro-3-(trifluoromethyl)phenyl]-2H 4H 5H 6H-pyrrolo[3,4-c]pyrazole]: the IC50 was less than 100 nM. For `COc1cc(-n2cc3c(n2)CN(C(=O)c2cc(C#N)ccc2O[C@@H](C)C(F)(F)F)C3)ccn1` [Example 364, 3-[2-(2-Methoxypyridin-4-yl)-2H 4H 5H 6H-pyrrolo[3,4-c]pyrazole-5-carbonyl]-4-{[(2S)-1 1 1-trifluoropropan-2-yl]oxy}benzonitrile], the IC50 was less than 100 nM.

With `C[C@H](Oc1ccc(S(C)(=O)=O)cc1C(=O)N1Cc2cn(-c3cccc(F)c3Cl)nc2C1)C(F)(F)F` [Example 147, 2-(2-Chloro-3-fluorophenyl)-5-(5-methanesulfonyl-2-{[(2S)-1 1 1-trifluoropropan-2-yl]oxy}benzoyl)-2H 4H 5H 6H-pyrrolo[3,4-c]pyrazole], the IC50 is less than 100 nM.

Regarding `CS(=O)(=O)c1ccc(N2CCC2)c(C(=O)N2CCc3nn(-c4ccccc4)cc3C2)c1` [Example 499, 1-(4-Methanesulfonyl-2-{2-phenyl-2H 4H 5H 6H 7H-pyrazolo[4,3-c]pyridine-5-carbonyl}phenyl)azetidine], the IC50 was more than 10000 nM. In the case of `CC(C)(Oc1ccc(C#N)cc1C(=O)N1Cc2cn(-c3ccc(F)cc3)nc2C1)C(F)(F)F` [Example 532, 3-[2-(4-Fluorophenyl)-2H 4H 5H 6H-pyrrolo[3,4-c]pyrazole-5-carbonyl]-4-[(1 1 1-trifluoro-2-methylpropan-2-yl)oxy]benzonitrile] it was 100 to 1000 nM; in that of `N#Cc1ccc(OCC2CC2)c(C(=O)N2Cc3cn(-c4ccc(F)cc4)nc3C2)c1` [Example 531, 4-(Cyclopropylmethoxy)-3-[2-(4-fluorophenyl)-2H 4H 5H 6H-pyrrolo[3,4-c]pyrazole-5-carbonyl]benzonitrile], 100 to 1000 nM. In the case of `COc1c(C#N)ccc(OC(C)C)c1C(=O)N1Cc2cn(-c3cncc(F)c3)nc2C1` [Example 325, 3-[2-(5-Fluoropyridin-3-yl)-2H 4H 5H 6H-pyrrolo[3,4-c]pyrazole-5-carbonyl]-2-methoxy-4-(propan-2-yloxy)benzonitrile], the IC50 was less than 100 nM. Take `CCS(=O)(=O)c1ccc(O[C@@H](C)C(F)(F)F)c(C(=O)N2Cc3cn(-c4cccc(C)c4)nc3C2)c1` [Example 72, 5-[5-(Ethanesulfonyl)-2-{[(2S)-1 1 1-trifluoropropan-2-yl]oxy}benzoyl]-2-(3-methylphenyl)-2H 4H 5H 6H-pyrrolo[3,4-c]pyrazole]: the IC50 was less than 100 nM. In the case of `CC(Oc1ccc(C#N)c(Cl)c1C(=O)N1CCc2nn(-c3cccnc3)cc2C1)C(F)(F)F` (centres unmarked) [Example 211, 2-Chloro-3[2-(pyridin-3-yl)-2H 4H 5H 6H 7H-pyrazolo[4,3-c]pyridine-5-carbonyl]-4-[(1 1 1-trifluoropropan-2-yl)oxy]benzonitrile] it was 100 to 1000 nM; in that of `COc1c(C#N)ccc(OCC(F)(F)F)c1C(=O)N1Cc2cn(-c3ccc(F)cc3)nc2C1` [Example 29, 3-[2-(4-Fluorophenyl)-2H 4H 5H 6H-pyrrolo[3,4-c]pyrazole-5-carbonyl]-2-methoxy-4-(2 2 2-trifluoroethoxy)benzonitrile], less than 100 nM. In the case of `CCS(=O)(=O)c1ccc(O[C@@H](C)C(F)(F)F)c(C(=O)N2Cc3cn(-c4cc(F)ccc4F)nc3C2)c1` [Example 125, 2-(2 5-Difluorophenyl)-5-[5-(ethanesulfonyl)-2-{[(2S)-1 1 1-trifluoropropan-2-yl]oxy}benzoyl]-2H 4H 5H 6H-pyrrolo[3,4-c]pyrazole] it was less than 100 nM; in that of `Cc1cc(-n2cc3c(n2)CN(C(=O)c2cc(C#N)ccc2O[C@@H](C)C(F)(F)F)C3)ncc1F` [Example 348], 100 to 1000 nM. Regarding `CC(Oc1ccc(C#N)c(Cl)c1C(=O)N1CCc2[nH]ncc2C1)C(F)(F)F` (centres unmarked) [Example 183, 2-Chloro-3-{1H 4H 5H 6H 7H-pyrazolo[4,3-c]pyridine-5-carbonyl}-4-[(1 1 1-trifluoropropan-2-yl)oxy]benzonitrile], the IC50 is more than 10000 nM. In the case of `CC(C)Oc1ccc(S(C)(=O)=O)cc1C(=O)N1Cc2cn(C3CCCCC3)nc2C1` [Example 403, 2-Cyclohexyl-5-[5-methanesulfonyl-2-(propan-2-yloxy)benzoyl]-2H 4H 5H 6H-pyrrolo[3,4-c]pyrazole] it was less than 100 nM; in that of `N#Cc1ccc(OCC(F)(F)F)c(C(=O)N2CCc3nn(-c4ccncc4)cc3C2)c1Cl` [Example 155, 2-Chloro-3-[2-(pyridin-4-yl)-2H 4H 5H 6H 7H-pyrazolo[4,3-c]pyridine-5-carbonyl]-4-(2 2 2-trifluoroethoxy)benzonitrile], 100 to 1000 nM; in that of `CC(C)Oc1ccc(S(C)(=O)=O)cc1C(=O)N1Cc2cn(C3CCC(F)(F)CC3)nc2C1` [Example 470, 2-(4 4-Difluorocyclohexyl)-5-[5-methanesulfonyl-2-(propan-2-yloxy)benzoyl]-2H 4H 5H 6H-pyrrolo[3,4-c]pyrazole], less than 100 nM. With `CS(=O)(=O)c1ccc(C2CCCC2)c(C(=O)N2CCc3nn(-c4ccccc4)cc3C2)c1` [Example 170, 5-(2-Cyclopentyl-5-methanesulfonylbenzoyl)-2-phenyl-2H 4H 5H 6H 7H-pyrazolo[4,3-c]pyridine], the IC50 was less than 100 nM. With `C[C@H](Oc1ccc(S(C)(=O)=O)cc1C(=O)N1Cc2cn(Cc3ccccc3)nc2C1)C(F)(F)F` [Example 398, 2-Benzyl-5-(5-methanesulfonyl-2-{[(2S)-1 1 1-trifluoropropan-2-yl]oxy}benzoyl)-2H 4H 5H 6H-pyrrolo[3,4-c]pyrazole], the IC50 is less than 100 nM. In the case of `COc1c(C#N)ccc(O[C@@H](C)C(F)(F)F)c1C(=O)N1Cc2cn(-c3ccc(C(F)(F)F)cn3)nc2C1` [Example 285, 2-Methoxy-3-{2-[5-(trifluoromethyl)pyridin-2-yl]-2H 4H 5H 6H-pyrrolo[3,4-apyrazole-5-carbonyl}-4-{1(2S)-1 1 1-trifluoropropan-2-yl]oxy}benzonitrile] it was 100 to 1000 nM. In the case of `CC(C)COc1ccc(S(C)(=O)=O)cc1C(=O)N1Cc2cn(-c3ccccc3)nc2C1` [Example 51, 5-[5-Methanesulfonyl-2-(2-methylpropoxy)benzoyl]-2-phenyl-2H 4H 5H 6H-pyrrolo[3,4-c]pyrazole] it was less than 100 nM. With `CC(Oc1ccc(C#N)c(Cl)c1C(=O)N1CCc2nn(-c3ccc(Cl)cn3)cc2C1)C(F)(F)F` (centres unmarked) [Example 228, 2-Chloro-3-[2-(5-chloropyridin-2-yl)-2H 4H 5H 6H 7H-pyrazolo[4,3-c]pyridine-5-carbonyl]-4-[(1 1 1-trifluoropropan-2-yl)oxy]benzonitrile], the IC50 was 100 to 1000 nM.

The record behind these values is patent US9708334B2, “Substituted 2,4,5,6-tetrahydropyrrolo[3,4-c]pyrazole and 4,5,6,7-tetrahydro-2H-pyrazolo[4,3-c]pyridine compounds as GlyT1 inhibitors” (DART NEUROSCIENCE (CAYMAN) LTD., priority 2014, dated 2017).
